# Measured values reported in patent US8633245B2, “PAI-1 inhibitor” (Institute of Medicinal Molecular Design, Inc., priority 2008, dated 2014).
# pIC50: −log10 of the molar value. Read-outs that look alike come from different tables or passages of the source.
# Columns and labels:
# recombinant human PAI-1 [1] = biological target: T1, recombinant human PAI-1 (Homo sapiens, UniProt P05121); experiment: Test Example 1: human PAI-1 inhibitory activity (tPA fluorogenic substrate, pH 7.5 Tris buffer); type: biochemical; settings: Tris buffer
# T1 construct: purchased Molecular Innovations, Inc
# T1 sequence (P05121 24-402): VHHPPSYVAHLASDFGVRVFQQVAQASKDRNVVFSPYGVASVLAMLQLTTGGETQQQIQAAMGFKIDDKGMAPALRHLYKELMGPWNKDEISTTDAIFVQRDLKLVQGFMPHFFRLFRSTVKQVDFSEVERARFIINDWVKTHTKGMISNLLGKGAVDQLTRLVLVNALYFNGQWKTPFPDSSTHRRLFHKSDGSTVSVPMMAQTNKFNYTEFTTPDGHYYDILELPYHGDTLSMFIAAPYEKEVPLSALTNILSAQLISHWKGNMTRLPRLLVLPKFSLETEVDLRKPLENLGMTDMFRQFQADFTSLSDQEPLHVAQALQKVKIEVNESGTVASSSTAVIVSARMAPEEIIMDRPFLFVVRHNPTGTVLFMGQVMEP
# Procedure: 50 mM Tris, 150 mM NaCl, 10 μg/ml BSA, 0.01% Tween80 (SIGMA-ALDRICH Corporation)
# recombinant human PAI-1 [2] = biological target: T1, recombinant human PAI-1; experiment: Test Example 2: human PAI-1 inhibitory activity (tPA fluorogenic substrate, pH 7.4 HEPES buffer); type: biochemical
# Procedure: 0.1 M HEPES, 0.1 M NaCl. 1 mM EDTA. 0.1% Polyethylene glycol 8,000 (Hampton Research Corporation),
# 2 mM Dimethyldecylphoshine oxide [Apo-10] (Fluka Corporation)
# [3] = human PAI-1, compound concentration 0.3 μM
# [4] = human PAI-1, compound concentration 3 μM
# [5] = human PAI-1, compound concentration 1 μM
# [6] = human PAI-1, compound concentration 10 μM
# [7] = human PAI-1, compound concentration 25 μM
# [8] = human PAI-1, calculated from the inhibition rates
# [9] = human PAI-1, compound concentration 0.1 μM
Inhibition Rate of PAI-1 Activity (%) (recombinant human PAI-1 [1]; Compound Concentration 5 μM),Inhibition Rate of PAI-1 Activity (%) (recombinant human PAI-1 [1]; Compound Concentration 10 μM),Inhibition Rate of PAI-1 Activity (%) (recombinant human PAI-1 [1]; Compound Concentration 25 μM),Inhibition Rate of PAI-1 Activity (%) (recombinant human PAI-1 [2]; [3]),Inhibition Rate of PAI-1 Activity (%) (recombinant human PAI-1 [2]; [4]),Inhibition Rate of PAI-1 Activity (%) (recombinant human PAI-1 [2]; [5]),also measured,SMILES
63%,95%,90%,,,,,CC(C)(C)c1ccc(CN(C(=O)C(=O)O)c2c(Cl)cc(-c3ccc(OC(F)(F)F)cc3)cc2Cl)cc1 [Compound 173]
3%,6%,34%,,,,,CCCCCCN(C(=O)C(=O)O)c1ccc(Oc2ccc(OC(F)(F)F)cc2)cc1 [Compound 252]
26%,59%,98%,,,,,COc1cc(-c2ccc(OC(F)(F)F)cc2)cc(CCC(=O)O)c1OCc1ccc(C(C)(C)C)cc1 [Compound 82]
22%,47%,91%,,,,,CC(C)(C)c1ccc(-c2ccc(OCc3ccccc3)c(/C=C/C(=O)O)c2)cc1 [Compound 47]
33%,67%,96%,,,,,CC(C)(C)c1ccc(COc2ccc(OCc3ccc(OC(F)(F)F)cc3)cc2CCC(=O)O)cc1 [Compound 414]
29%,63%,86%,,,,,O=C(O)C(=O)N(CCCc1ccccc1)c1ccc(-c2ccc(OC(F)(F)F)cc2)cc1 [Compound 224]
5%,29%,92%,,,,,O=C(O)CCc1cc(-c2ccc(OC(F)(F)F)cc2)ccc1OCc1ccc(Cl)cc1Cl [Compound 27]
30%,40%,53%,,,,,O=C(O)C=Cc1c(Oc2ccc(OC(F)(F)F)cc2)cccc1Oc1ccc(OC(F)(F)F)cc1 [Compound 97]
18%,35%,64%,,,,,CC(C)(C)c1ccc(CN(C(=O)C(=O)O)c2ccc(-c3ccc(OC(F)(F)F)cc3)c(CCC(=O)O)c2)cc1 [Compound 196]
25%,53%,77%,,,,,Cc1cc(C)cc(COc2ccc(-c3ccc(OC(F)(F)F)cc3)cc2CCC(=O)O)c1 [Compound 59]
51%,86%,89%,,,,,CC(c1ccc(C(C)(C)C)cc1)N(C(=O)C(=O)O)c1ccc(-c2ccc(OC(F)(F)F)cc2)cc1 (stereo not shown) [Compound 220]
,11%,29%,,,,,O=C(O)C(=O)N(Cc1ccc(OC(F)(F)F)cc1)c1ccc(-c2ccccc2)cc1 [Compound 183]
23%,46%,96%,,,,,O=C(O)CCc1cc(-c2ccc(OC(F)(F)F)cc2)ccc1Oc1ccc(OC(F)(F)F)cc1 [Compound 16]
64%,89%,82%,,,,,CC(C)(C)c1ccc(CN(C(=O)C(=O)O)c2ccc(-c3ccccc3OC(F)(F)F)cc2)cc1 [Compound 201]
58%,89%,,,,,,CC(C)(C)c1ccc(N(C(=O)C(=O)O)c2ccc(-c3ccc(OC(F)(F)F)cc3)cc2)cc1 [Compound 128]
,,,9%,>99%,,"Inhibition Rate of PAI-1 Activity (%) (recombinant human PAI-1 [2]; human PAI-1, compound concentration 0.1 μM, 0.1 µM): 6%; Inhibition Rate of PAI-1 Activity (%) (recombinant human PAI-1 [2]; human PAI-1, compound concentration 1 μM, 1 µM): 84%",CC(C)(C)C1CCC(CN(C(=O)C(=O)O)c2ccc(-c3ccc(OC(F)(F)F)cc3)cc2)CC1 (stereo not shown) [Compound 679]
,,,,25%,7%,Inhibition Rate of PAI-1 Activity (%) (recombinant human PAI-1 [2]; [6]): 84%; Inhibition Rate of PAI-1 Activity (%) (recombinant human PAI-1 [2]; [7]): >99%,CC(C)(C)c1ccc(N(Cc2ccc(-c3ccccc3)cc2)C(=O)C(=O)O)cc1 [Compound 612]
,,,,,,pIC50 (recombinant human PAI-1 [2]): 6.21,CCCCCOc1ccc(-c2cccc(C(F)(F)F)c2)cc1N(CCCCc1ccccc1)C(=O)C(=O)O [Compound 378]

Inhibition Rate of PAI-1 Activity (%) (recombinant human PAI-1 [1]; Compound Concentration 5 μM),Inhibition Rate of PAI-1 Activity (%) (recombinant human PAI-1 [1]; Compound Concentration 10 μM),Inhibition Rate of PAI-1 Activity (%) (recombinant human PAI-1 [1]; Compound Concentration 25 μM),Inhibition Rate of PAI-1 Activity (%) (recombinant human PAI-1 [2]; [3]),Inhibition Rate of PAI-1 Activity (%) (recombinant human PAI-1 [2]; [4]),Inhibition Rate of PAI-1 Activity (%) (recombinant human PAI-1 [2]; [5]),also measured,SMILES
,,,,,,pIC50 (recombinant human PAI-1 [2]; [8]): 6.08,CCCCC(Oc1cc(-c2ccc(OC(F)(F)F)cc2)ccc1OCCCCc1ccc(F)cc1)C(=O)O (stereo not shown) [Compound 324]
,,,7%,>99%,73%,Inhibition Rate of PAI-1 Activity (%) (recombinant human PAI-1 [2]; [9]): 0%,CC(C)(C)c1ccc(Oc2cc(-c3cc(Cl)ccc3Cl)ccc2CCC(=O)O)cc1 [Compound 484]
,,,,,,pIC50 (recombinant human PAI-1 [2]; [8]): 5.87,CC(C)(Oc1c(Oc2ccc(C(C)(C)C)cc2)cccc1-c1ccc(OC(F)(F)F)cc1)C(=O)O [Compound 251]
,,,,,,pIC50 (recombinant human PAI-1 [2]): 5.80,CC(C)(C)Oc1ccc(-c2ccc(OC(F)(F)F)cc2)cc1N(CCCCc1ccccc1)C(=O)C(=O)O [Compound 373]
,,,40%,>99%,>99%,Inhibition Rate of PAI-1 Activity (%) (recombinant human PAI-1 [2]; [9]): 16%,CCCCCCCOc1cc(N(CCCCc2ccccc2)C(=O)C(=O)O)ccc1-c1ccc(OC(F)(F)F)cc1 [Compound 650]
,,,26%,97%,92%,Inhibition Rate of PAI-1 Activity (%) (recombinant human PAI-1 [2]; [9]): 0%,CC(C)(C)c1ccc(Oc2ccc(Oc3ccc(OC(F)(F)F)cc3)cc2OCC(=O)O)cc1 [Compound 537]
,,,11%,98%,58%,Inhibition Rate of PAI-1 Activity (%) (recombinant human PAI-1 [2]; [9]): 9%,CC(C)(C)c1ccc(Oc2cc(-c3ccc(OC(F)(F)F)cc3)ccc2/C=C\C(=O)O)cc1 [Compound 450]
,,,,14%,0%,Inhibition Rate of PAI-1 Activity (%) (recombinant human PAI-1 [2]; [6]): 57%; Inhibition Rate of PAI-1 Activity (%) (recombinant human PAI-1 [2]; [7]): >99%,CC(C)(C)c1ccc(CN(C(=O)C(=O)O)c2ccc(N3CCN(c4ccccc4)CC3)cc2)cc1 [Compound 627]
,,,12%,>99%,87%,Inhibition Rate of PAI-1 Activity (%) (recombinant human PAI-1 [2]; [9]): 1%,CC(C)(C)c1ccc(Oc2cc(Nc3ccc(OC(F)(F)F)cc3)ccc2OCC(=O)O)cc1 [Compound 536]
,,,,,,pIC50 (recombinant human PAI-1 [2]; [8]): 5.75,Cc1cccc(-c2ccc(Oc3ccc(C(C)(C)C)cc3)c(OCC(=O)O)c2)c1 [Compound 316]
,,,19%,>99%,>99%,Inhibition Rate of PAI-1 Activity (%) (recombinant human PAI-1 [2]; [9]): 1%,CC(C)c1ccc(-c2ccc(CCC(=O)O)c(Oc3ccc(C(C)(C)C)cc3)c2)cc1 [Compound 519]
,,,,,,pIC50 (recombinant human PAI-1 [2]; [8]): 6.24,CCCCC(Oc1cc(-c2cccc(C(F)(F)F)c2)ccc1Oc1ccc(C(C)(C)C)cc1)C(=O)O (stereo not shown) [Compound 318]
,,,9%,>99%,26%,Inhibition Rate of PAI-1 Activity (%) (recombinant human PAI-1 [2]; [9]): 15%,CC(C)(C)Oc1ccc(Oc2cc(-c3ccc(OC(F)(F)F)cc3)ccc2CCC(=O)O)cc1 [Compound 473]
,,,59%,>99%,>99%,Inhibition Rate of PAI-1 Activity (%) (recombinant human PAI-1 [2]; [9]): 12%,CC(C)(C)c1ccc(Oc2cc(Nc3ccc(OC(F)(F)F)cc3)ccc2CCC(=O)O)cc1 [Compound 532]
,,,11%,>99%,50%,Inhibition Rate of PAI-1 Activity (%) (recombinant human PAI-1 [2]; [9]): 13%,CC(C)(C)c1cccc(Oc2ccc(-c3ccc(OC(F)(F)F)cc3)cc2CCC(=O)O)c1 [Compound 438]
,,,0%,74%,15%,Inhibition Rate of PAI-1 Activity (%) (recombinant human PAI-1 [2]; [9]): 0%,COc1ccc(-c2ccc(OC(F)(F)F)cc2)cc1N(CCCCc1ccccc1)C(=O)C(=O)O [Compound 651]
,,,,,,pIC50 (recombinant human PAI-1 [2]; [8]): 6.17,CCCCC(Oc1cc(Oc2ccc(OC(F)(F)F)cc2)ccc1OCc1ccc(C(C)(C)C)cc1)C(=O)O (stereo not shown) [Compound 308]
,,,,,,pIC50 (recombinant human PAI-1 [2]; [8]): 6.18,CCCCC(Oc1cc(Oc2ccc(OC(F)(F)F)cc2)ccc1OCCCCc1ccccc1)C(=O)O (stereo not shown) [Compound 309]
